Experimental data as given in ChEMBL document CHEMBL4725324, “In vitro and in vivo evaluation of the antimalarial MMV665831 and structural analogs” (Bioorg Med Chem Lett, 2020).
The source made the active and inactive calls. No cut-off for these calls is given here.

Legend:
[1] = system: Plasmodium falciparum; assay: Antimalarial activity against Plasmodium falciparum 3D7 assessed as reduction in parasite growth incubated for 48 hrs; type: functional, organism-based; conditions: 3D7, 48 h
[2] = Stability in mouse plasma assessed as carboxylesterase-mediated reduction in parent compound incubated for over 120 mins; type: ADME, cell-free; conditions: 2 h
[3] = Stability in mouse hepatocytes assessed as half life; type: ADME, cell-based, Hepatocyte
[4] = system: Plasmodium berghei; assay: Antimalarial activity against blood-stage Plasmodium berghei infected in mouse assessed as reduction in parasite growth at 40 mg/kg, po; type: functional, organism-based
[5] = Drug metabolism in 0.1 M DCl in D20 assessed as ethyl 2-benzamido-4-deuterio-6-(dimethylaminomethyl)-7-hydroxy-benzothiophene-3-carboxylate formation at 90 degC after 24 hrs
[6] = Stability in D2O at 90 degC measured after 1 day HRMS analysis; type: physicochemical; conditions: 24 h
[7] = Solubility of compound in CDCl3; type: physicochemical
[8] = Stability in D2O at 50 degC measured after 7 days HRMS analysis; type: physicochemical; conditions: 168 h; time 7 day
[9] = Stability in methanolic diethylamine at 40 degC measured after 2 days 1H-NMR analysis; type: physicochemical; conditions: 48 h; time 2 day
[10] = Stability in methanolic diethylamine at 40 degC measured after 2 days HRMS analysis; type: physicochemical; conditions: 48 h; time 2 day
[11] = Solubility of compound in D2O; type: physicochemical

Row | SMILES | EC50 [1] [nM] | also measured
1 | CCOC(=O)c1c(NC(=O)c2ccccc2)sc2c(O)c(CNC34CC5CC(CC(C5)C3)C4)ccc12 | 388 | 
2 | O[C@@H](c1cc(C(F)(F)F)nc2c(C(F)(F)F)cccc12)[C@H]1CCCCN1 [(S,R)-MEFLOQUINE] | 16 | 
3 | CCN(CC)Cc1ccc2c(C(=O)OC)c(NC(=O)c3ccccc3)sc2c1O | 53 | 
4 | CCOC(=O)c1c(NC(=O)c2ccccc2)sc2c(O)c(CN3CCCC3)ccc12 | 16 | 
5 | CCOC(=O)c1c(NC(=O)c2ccc(Cl)cc2)sc2c(O)c(CN(CC)CC)ccc12 | 70 | 
6 | CCOC(=O)c1c(NC(=O)c2ccccc2)sc2c(O)c(CN3CCOCC3)ccc12 | 100 | 
7 | CCN(CC)Cc1ccc2c(C(=O)NC)c(NC(=O)c3ccccc3)sc2c1O | > 1000 | 
8 | CCOC(=O)c1c(NC(=O)c2ccccc2)sc2c(O)c(CN(CC)CC)ccc12 | 27 | Stabilty [2]: Stable; t1/2 [3]: 11 min; Activity [4]: inactive
9 | CCOC(=O)c1c(NC(=O)c2ccccc2)sc2c(O)c(CN(C)C)ccc12.Cl | 24 | Drug metabolism [5]: Metabolite detected; Stabilty [6]: Unstable; solubility [7]: Insoluble; Stabilty [8]: Stable; Stabilty [9]: Stable; Stabilty [10]: Stable; solubility [11]: Insoluble
10 | CCOC(=O)c1c(NC(=O)c2ccc(OC)cc2)sc2c(O)c(CN(CC)CC)ccc12 | 66 | 
11 | CCOC(=O)c1c(NC(=O)c2ccccc2)sc2c(O)c(CN3CCCCC3)ccc12 | 13 | 
12 | CCOC(=O)c1c(NC(=O)c2ccccc2)sc2c(OC)c(CN(CC)CC)ccc12 | > 1000 | 
13 | CCCN(CCC)Cc1ccc2c(C(=O)OCC)c(NC(=O)c3ccccc3)sc2c1O | 16 | 
14 | CCOC(=O)c1c(NC(=O)c2ccccc2)sc2c(O)c(CCN(C)C)ccc12 | 182 | 
